Source: US6689767B2, “Triterpenes having antibacterial activity” (Regents of the University of Minnesota, priority 2000, dated 2004)
Read-outs that look alike come from different tables or passages of the source.

Legend:
Format in all cases: cell-based
[1] = system: Escherichia coli; test: Kirby-Bauer disk diffusion growth inhibition, Escherichia coli; conditions: for zone of inhibition at 0.125 µg/mL: read-out: Zone of inhibition Escherichia coli; for zone of inhibition at 1000 µg/mL: 1 mg/ml in DMSO
Protocol: (§1) The compounds disclosed herein were tested for growth inhibition against four strains of bacteria: Escherichia coli, Staphylococcus aureus, methicillin-resistant Staphylococcus aureus, and Bacillus subtilis. […] They represent […]. E. coli is a gram-negative, non-spore forming, rod-shaped, opportunistic pathogen that resides in the human digestive tract. S. aureus is a gram positive coccus, is usually found morphologically as a […], and is an opportunistic human pathogen, often residing on or in the skin. B. subtilis is a gram positive spore-forming rod. Its native environment is the soil. The chemicals were tested for growth-inhibition of the bacteria by the Kirby-Bauer method. See, e.g., Microbiology, third edition; Lansing M. Prescott, John P. Harley, and Donald A. Klein; Wm. C. Brown Publishers.
(§2) Mueller-Hinton agar (Difco Lab, Michigan) was prepared according to the manufacturer's directions, and 20 ml was dispensed in each sterile petri dish. Sterile nutrient broth (Difco Lab, Michigan) was also prepared according to the manufacturer's directions.
(§3) Bacteria were grown in liquid nutrient broth for 18 hours at 37° C. until they were turbid.
(§4) An aliquot of 0.5 ml of cultured bacteria was aseptically transferred to the surface of a Mueller-Hinton agar plat, and spread using a cotton-tipped swab. Plates were then allowed to dry for 5 minutes. Then a 10 mm diameter filter paper disk impregnated with the test chemical was placed with sterile forceps on the plate. The disks were impregnated with 100 μl of a solution of the test compound in DMSO or in water, at the indicated concentrations in Table 1.
(§5) The zones of inhibition were measured after 18 hours growth at 37° C. Tests were done in triplicate.
(§6) Additional compounds were tested for activity against E. coli, laboratory strain S. aureus (not methicillin resistant), and B. subtilis. The compounds were tested by the disk diffusion method, as in Example 1, with application of a 10 mg/mil solution of the test compound in DMSO.

[2] = system: Staphylococcus aureus; test: Kirby-Bauer disk diffusion growth inhibition, Staphylococcus aureus; conditions: for zone of inhibition at 0.125 µg/mL: read-out: Zone of inhibition Staphylococcus aureus; for zone of inhibition at 1000 µg/mL: 1 mg/ml in DMSO
Protocol: as §1, §2, §3, §4, §5, §6
Derivatives of lupeol were tested for inhibition of bacterial growth using the Kirby-Bauer disk diffusion method and by growth in liquid culture. For the disk diffusion method, compounds were dissolved in DMSO and 100 μl was added to the 10 mm filter paper disk. The amount of compound applied to the disk varied. The amount applied for each compound was as follows: lupeol (50 μg), lupeol-3-maleate (15 μg), lupeol-3-thiodiglycolate (15 μg), lupeol-3-dimethyl succinate (60 μg), lupeol-3-phosphate (30 μg), lupenone (50 μg), lupenon-3-oxime (50 μg), lupeol-3-amine (50 μg), lupenon-1,2-ene-2-ol (50 μg). In liquid culture, the compounds were dissolved in DMSO at 1 mg/ml and then 100 μl was added to 7 ml of sterile broth, along with a 1/200 dilution of freshly grown bacterial liquid culture.

[3] = system: Bacillus subtilis; test: Kirby-Bauer disk diffusion growth inhibition, Bacillus subtilis; conditions: for zone of inhibition at 0.125 µg/mL: read-out: Zone of inhibition Bacillus subtilis; for zone of inhibition at 1000 µg/mL: 1 mg/ml in DMSO
Protocol: as §1, §2, §3, §4, §5, §6

[4] = Escherichia coli, 125 ng/ml in water, 100 μl on 10 mm disk, 18 hours 37° C.
[5] = Staphylococcus aureus, 125 ng/ml in water, 100 μl on 10 mm disk, 18 hours 37° C.
[6] = Bacillus subtilis, 125 ng/ml in water, 100 μl on 10 mm disk, 18 hours 37° C.
[7] = 125 ng/ml in water, 100 μl on 10 mm disk, 18 hours 37° C.
[8] = Escherichia coli, 100 μl on 10 mm disk, 18 hours 37° C.
[9] = Staphylococcus aureus, 100 μl on 10 mm disk, 18 hours 37° C.
[10] = Bacillus subtilis, 100 μl on 10 mm disk, 18 hours 37° C.
[11] = 5 mg/ml in DMSO, 100 μl on 10 mm disk, 18 hours 37° C.
[12] = 10 mg/ml in DMSO, 100 μl on 10 mm disk, 18 hours 37° C.

Molecule: CC1(C)CCC23CC[C@@]4(C)C(CCC5[C@@]6(C)C=C(OC(=O)CCC(=O)O)C(=O)C(C)(C)C6CC[C@]54C)C2C1OC3 (stereo partly drawn) [3-Allobetulon-1-ene-2-succinate, 3-Allobetulon-1-en-2succinate]
- zone of inhibition at 0.125 µg/mL [1, 4]: 0 mm
- zone of inhibition at 0.125 µg/mL [2, 5]: 0 mm
- zone of inhibition at 0.125 µg/mL [3, 6]: 0 mm

Molecule: CC(=O)OC1CCC2(C)C(CCC3(C)C2CCC2C4C5OC(=O)C4(CCC5(C)C)CCC23C)C1(C)C (stereo not drawn) [3β-Acetoxy-19αH-19,28 lactone oleanan]
- Zone of inhibition Escherichia coli [1, 7]: 0 mm
- Zone of inhibition Staphylococcus aureus [2, 7]: 0 mm
- Zone of inhibition Bacillus subtilis [3, 7]: 0 mm

Molecule: CC1(C)CCC23CCC4(C)C(CCC5C6(C)CCC(OC(=O)CCCC(=O)O)C(C)(C)C6CCC54C)C2C1OC3 (stereo not drawn) [Allobetulin 3-glutarate, Allobetulin-3-glutarate]
- zone of inhibition at 0.125 µg/mL [1, 4]: 0 mm
- zone of inhibition at 1000 µg/mL [1, 8]: 0 mm
- zone of inhibition at 0.125 µg/mL [2, 5]: 0 mm
- zone of inhibition at 1000 µg/mL [2, 9]: 0 mm
- zone of inhibition at 0.125 µg/mL [3, 6]: 0 mm
- zone of inhibition at 1000 µg/mL [3, 10]: 0 mm

Molecule: CC1(C)CCC23CC[C@@]4(C)C(CCC5[C@@]6(C)CCC(OP(=O)(O)O)C(C)(C)C6CC[C@]54C)C2C1OC3 (stereo partly drawn) [Allobetulin 3-phosphate, allobetulin-3-phosphate]
- zone of inhibition at 0.125 µg/mL [1, 4]: 0 mm
- zone of inhibition at 0.125 µg/mL [2, 5]: 0 mm
- zone of inhibition at 0.125 µg/mL [3, 6]: 0 mm

Molecule: CC1(C)CCC23CCC4(C)C(CCC5C6(C)CCC(OC(=O)CCC(=O)O)C(C)(C)C6CCC54C)C2C1OC3 (stereo not drawn) [Allobetulin 3-succinate, Allobetulin-3-succinate]
- Zone of inhibition Escherichia coli [1, 11]: 0 mm
- Zone of inhibition Staphylococcus aureus [2, 11]: 0 mm
- Zone of inhibition Bacillus subtilis [3, 11]: 0 mm

Molecule: CC1(C)CCC23CC[C@@]4(C)C(CCC5[C@@]6(C)CCC(OP(=O)(O)O)C(C)(C)C6CC[C@]54C)C2C1OC3=O (stereo partly drawn) [Allobetulin lactone phosphate, allobetulin lactone-3-phosphate]
- Zone of inhibition Escherichia coli [1, 7]: 0 mm
- Zone of inhibition Staphylococcus aureus [2, 7]: 0 mm
- Zone of inhibition Bacillus subtilis [3, 7]: 0 mm

Molecule: CC1(C)CCC23CC[C@@]4(C)C(CCC5[C@@]6(C)CC[C@H](O)C(C)(C)C6CC[C@]54C)C2C1OC3=O (stereo partly drawn) [Allobetulin lactone]
- zone of inhibition at 0.125 µg/mL ([1]; Escherichia coli, 18 h): 0 mm
- zone of inhibition at 0.125 µg/mL ([2]; Staphylococcus aureus, 18 h): 0 mm
- zone of inhibition at 0.125 µg/mL ([3]; Bacillus subtilis, 18 h): 0 mm

Molecule: CC1(C)CCC23CC[C@@]4(C)C(CCC5[C@@]6(C)CC[C@H](O)C(C)(C)C6CC[C@]54C)C2C1OC3 (stereo partly drawn) [Allobetulin]
- zone of inhibition at 1000 µg/mL [1, 8]: 0 mm
- zone of inhibition at 1000 µg/mL [2, 9]: 0 mm
- zone of inhibition at 1000 µg/mL [3, 10]: 0 mm

Molecule: CC1(C)CCC23CC[C@@]4(C)C(CCC5[C@@]6(C)CCC(=O)C(C)(C)C6CC[C@]54C)C2C1OC3 (stereo partly drawn) [Allobetulon]
- zone of inhibition at 0.125 µg/mL [1, 4]: 0 mm
- zone of inhibition at 0.125 µg/mL [2, 5]: 0 mm
- zone of inhibition at 0.125 µg/mL [3, 6]: 0 mm

Molecule: C=C(C)C1CCC2(COC(=O)CCCC(=O)O)CCC3(C)C(CCC4C5(C)CCC(O)C(C)(C)C5CCC43C)C12 (stereo not drawn) [Betulin 28-glutarate, Betulin-28-glutarate]
- zone of inhibition at 0.125 µg/mL [1, 4]: 0 mm
- zone of inhibition at 0.125 µg/mL [2, 5]: 0 mm
- zone of inhibition at 0.125 µg/mL [3, 6]: 0 mm

Molecule: C=C(C)[C@@H]1CC[C@]2(COC(=O)/C=C\C(=O)O)CC[C@]3(C)[C@H](CC[C@@H]4[C@@]5(C)CC[C@H](O)C(C)(C)[C@@H]5CC[C@]43C)[C@@H]12 [Betulin 28-maleate, Betulin-28-maleate]
- Zone of inhibition Escherichia coli [1, 12]: 0 mm
- Zone of inhibition Staphylococcus aureus [2, 12]: 0 mm
- Zone of inhibition Bacillus subtilis [3, 12]: 0 mm

Molecule: C=C(C)C1CCC2(COC(=O)CCC(=O)O)CC[C@@]3(C)C(CCC4[C@@]5(C)CCC(O)C(C)(C)C5CC[C@]43C)C12 (stereo partly drawn) [Betulin 28-succinate, Betulin-28-succinate]
- zone of inhibition at 1000 µg/mL [1, 8]: 0 mm
- zone of inhibition at 1000 µg/mL [2, 9]: 0 mm
- zone of inhibition at 1000 µg/mL [3, 10]: 0 mm

Molecule: C=C(C)C1CCC2(COC(=O)[C@@H](N)CCC(=O)OCc3ccccc3)CCC3(C)C(CCC4C5(C)CCC(OC(=O)[C@@H](N)CCC(=O)OCc6ccccc6)C(C)(C)C5CCC43C)C12 (stereo partly drawn) [Betulin Di-(L-glutamic acid γ-benzyl ester) ester]
- Zone of inhibition Escherichia coli [1, 7]: 0 mm
- Zone of inhibition Staphylococcus aureus [2, 7]: 0 mm
- Zone of inhibition Bacillus subtilis [3, 7]: 0 mm

Molecule: C=C(C)[C@@H]1CC[C@]2(COC(=O)[C@@H]3CCCN3)CC[C@]3(C)[C@H](CC[C@@H]4[C@@]5(C)CC[C@H](OC(=O)[C@@H]6CCCN6)C(C)(C)[C@@H]5CC[C@]43C)[C@@H]12 [Betulin Di-(L-proline) ester]
- Zone of inhibition Escherichia coli [1, 7]: 0 mm
- Zone of inhibition Staphylococcus aureus [2, 7]: 0 mm
- Zone of inhibition Bacillus subtilis [3, 7]: 0 mm

Molecule: C=C(C)C1CCC2(COC(=O)C(N)Cc3ccccc3)CCC3(C)C(CCC4C5(C)CCC(OC(=O)C(N)Cc6ccccc6)C(C)(C)C5CCC43C)C12 (stereo not drawn) [Betulin-3,28-diphenylalanine ester]
- Zone of inhibition Escherichia coli [1, 7]: 0 mm
- Zone of inhibition Staphylococcus aureus [2, 7]: 0 mm
- Zone of inhibition Bacillus subtilis [3, 7]: 0 mm

Molecule: C=C(C)[C@@H]1CC[C@]2(CO)CC[C@]3(C)[C@H](CC[C@@H]4[C@@]5(C)CC[C@H](O)C(C)(C)[C@@H]5CC[C@]43C)[C@@H]12 [Betulin]
- zone of inhibition at 1000 µg/mL [1, 8]: 0 mm
- zone of inhibition at 1000 µg/mL [2, 9]: 0 mm
- zone of inhibition at 1000 µg/mL [3, 10]: 0 mm

Molecule: C=C(C)C1CCC2(C)CCC3(C)C(CCC4C5(C)CCC(OC(=O)c6ccccc6C(=O)O)C(C)(C)C5CCC43C)C12 (stereo not drawn) [Lupeol-3-phthalate]
- zone of inhibition at 0.125 µg/mL [1, 4]: 0 mm
- zone of inhibition at 0.125 µg/mL [2, 5]: 0 mm
- zone of inhibition at 0.125 µg/mL [3, 6]: 0 mm

Molecule: C=C(C)C1CCC2(C)CCC3(C)C(CCC4C5(C)CCC(OC(=O)CCC(=O)O)C(C)(C)C5CCC43C)C12 (stereo not drawn) [Lupeol-3-succinate]
- zone of inhibition at 0.125 µg/mL [1, 4]: 0 mm
- zone of inhibition at 0.125 µg/mL [2, 5]: 0 mm
- zone of inhibition at 0.125 µg/mL [3, 6]: 0 mm

Molecule: CC1(C)S[C@@H]2[C@H](NC(=O)Cc3ccccc3)C(=O)N2[C@H]1C(=O)O [Pencillin G, reference compound]
- Zone of inhibition Escherichia coli ([1]; control antibiotic, 10 units): 0 mm
- Zone of inhibition Staphylococcus aureus ([2]; control antibiotic, 10 units): 40.0 mm
- Zone of inhibition Bacillus subtilis ([3]; control antibiotic, 10 units): 25.0 mm

Molecule: CN(C)[C@@H]1C(O)=C(C(N)=O)C(=O)[C@@]2(O)C(O)=C3C(=O)c4c(O)cccc4[C@@](C)(O)[C@H]3C[C@@H]12 [Tetracycline, reference compound]
- zone of inhibition at 30 µg/disc ([1]; Escherichia coli, control antibiotic, 30 mcg): 19 mm
- zone of inhibition at 30 µg/disc ([2]; Staphylococcus aureus, control antibiotic, 30 mcg): 26 mm
- zone of inhibition at 30 µg/disc ([3]; Bacillus subtilis, control antibiotic, 30 mcg): 31 mm

Molecule: C[C@H]1[C@H](C)CC[C@]2(C(=O)O)CC[C@]3(C)C(=CC[C@@H]4[C@@]5(C)CC[C@H](O)C(C)(C)[C@@H]5CC[C@]43C)[C@H]12 [Ursolic Acid]
- zone of inhibition at 0.125 µg/mL [1, 4]: 0 mm
- zone of inhibition at 0.125 µg/mL [2, 5]: 0 mm
- zone of inhibition at 0.125 µg/mL [3, 6]: 0 mm

Molecule: Allobetulin 2-alanine ester
- Zone of inhibition Escherichia coli [1, 7]: 0 mm
- Zone of inhibition Staphylococcus aureus [2, 7]: 0 mm
- Zone of inhibition Bacillus subtilis [3, 7]: 0 mm
